{"source": "ChEMBL document CHEMBL5634069", "about": "“Exploring N-myristoyltransferase as a promising drug target against parasitic neglected tropical diseases” (Eur J Med Chem, 2023)", "key": {"[1]": {"tested_on": "Plasmodium falciparum", "test": "Antiplasmodial activity against trophozoite stage Plasmodium falciparum 3D7 assessed as inhibition of plasmodial growth measured after 48 hrs by flow cytometry analysis", "assay_type": "functional, organism-based", "conditions": "3D7, 48 h"}, "[2]": {"tested_on": "Plasmodium falciparum", "test": "Antiplasmodial activity against chloroquine resistant Plasmodium falciparum K1 assessed as inhibition of plasmodial growth measured after 48 hrs by flow cytometry analysis", "assay_type": "functional, organism-based", "conditions": "K1, 48 h"}, "[3]": {"test": "Cytotoxicity against MDCK cells incubated overnight by MTT assay", "assay_type": "toxicity, cell-based, Canis lupus familiaris", "conditions": "dog"}, "[4]": {"test": "Selectivity index, ratio of IC50 for MDCK cells to IC50 for trophozoite stage Plasmodium falciparum 3D7", "assay_type": "toxicity", "conditions": "dog; read-out: Ratio IC50"}, "[5]": {"tested_on": "Trypanosoma brucei", "test": "Antitrypanosomal activity against Trypanosoma brucei assessed as reduction in parasite growth", "assay_type": "functional, organism-based"}, "[6]": {"tested_on": "Leishmania amazonensis", "test": "Antileishmanial activity against Leishmania amazonensis IFLA/BR/1967/PH8 promastigote", "assay_type": "functional, organism-based"}, "[7]": {"tested_on": "Trypanosoma cruzi", "test": "Antiprotozoal activity against Trypanosoma cruzi amastigotes measured after 24 hrs", "assay_type": "functional, organism-based"}, "[8]": {"tested_on": "Trypanosoma cruzi", "test": "Antiprotozoal activity against Trypanosoma cruzi epimastigotes assessed as reduction in parasite growth relative to control", "assay_type": "functional", "parameters": "scale not given: the % may be the effect or the level left"}, "[9]": {"test": "Inhibition of Trypanosoma brucei NMT"}, "[10]": {"target": "T1, Glycylpeptide N-tetradecanoyltransferase 1 (Homo sapiens, UniProt P30419)", "T1 sequence (P30419 whole entry)": "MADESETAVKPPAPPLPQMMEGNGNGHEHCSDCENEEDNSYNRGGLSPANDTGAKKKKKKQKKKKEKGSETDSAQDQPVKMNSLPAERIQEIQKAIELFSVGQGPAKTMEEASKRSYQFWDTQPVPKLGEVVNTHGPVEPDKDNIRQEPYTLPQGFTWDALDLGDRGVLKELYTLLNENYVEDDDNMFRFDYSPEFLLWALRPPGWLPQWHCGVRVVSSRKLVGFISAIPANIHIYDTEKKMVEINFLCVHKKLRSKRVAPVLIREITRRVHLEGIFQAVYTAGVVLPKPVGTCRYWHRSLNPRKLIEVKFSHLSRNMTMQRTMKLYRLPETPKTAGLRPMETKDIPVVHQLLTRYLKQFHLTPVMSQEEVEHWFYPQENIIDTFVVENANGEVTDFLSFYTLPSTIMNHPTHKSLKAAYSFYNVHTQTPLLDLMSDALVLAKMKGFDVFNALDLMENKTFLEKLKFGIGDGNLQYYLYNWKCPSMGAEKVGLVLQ", "test": "Inhibition of human NMT"}, "[11]": {"tested_on": "Leishmania donovani", "test": "Antileishmanial activity against Leishmania donovani promastigote assessed as reduction in parasite growth measured after 72 hrs", "assay_type": "functional, organism-based"}, "[12]": {"tested_on": "Trypanosoma brucei brucei", "test": "Antitrypanosomal activity against bloodstream Trypanosoma brucei brucei s427 assessed as reduction in parasite growth measured after 72 hrs by inverted microscope based analysis", "assay_type": "functional, organism-based", "conditions": "s427, 72 h"}, "[13]": {"tested_on": "Leishmania donovani", "test": "Antileishmanial activity against Leishmania donovani MHOM/ET/67/HU3 axenic amastigotes", "assay_type": "functional, organism-based"}, "[14]": {"test": "Binding affinity to Leishmania donovani NMT assessed as apparent inhibition constant", "conditions": "read-out: Ki(app)"}, "[15]": {"tested_on": "Leishmania donovani", "test": "Antileishmanial activity against Leishmania donovani amastigotes", "assay_type": "functional, organism-based"}, "[16]": {"target": "T2, Glycylpeptide N-tetradecanoyltransferase (Plasmodium falciparum, UniProt Q9U419)", "T2 sequence (Q9U419 whole entry)": "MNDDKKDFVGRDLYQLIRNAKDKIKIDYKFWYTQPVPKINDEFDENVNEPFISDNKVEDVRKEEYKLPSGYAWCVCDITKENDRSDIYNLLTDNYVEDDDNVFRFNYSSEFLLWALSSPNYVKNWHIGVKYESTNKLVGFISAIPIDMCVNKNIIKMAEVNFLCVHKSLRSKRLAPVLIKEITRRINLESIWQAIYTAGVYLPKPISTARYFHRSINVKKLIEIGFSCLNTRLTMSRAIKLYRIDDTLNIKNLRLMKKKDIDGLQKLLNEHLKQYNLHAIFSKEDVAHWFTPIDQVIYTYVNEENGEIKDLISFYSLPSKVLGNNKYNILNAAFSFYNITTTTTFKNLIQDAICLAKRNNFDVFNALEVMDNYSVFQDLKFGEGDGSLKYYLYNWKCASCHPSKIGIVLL", "test": "Inhibition of recombinant Plasmodium falciparum NMT using 3H-myristoyl CoA as substrate preincubated for 15 mins followed by substrate addition and measured after 80 mins"}, "[17]": {"target": "T1, Glycylpeptide N-tetradecanoyltransferase 1", "test": "Inhibition of human NMT1"}, "[18]": {"target": "T3, Glycylpeptide N-tetradecanoyltransferase 2 (Homo sapiens, UniProt O60551)", "T3 sequence (O60551 whole entry)": "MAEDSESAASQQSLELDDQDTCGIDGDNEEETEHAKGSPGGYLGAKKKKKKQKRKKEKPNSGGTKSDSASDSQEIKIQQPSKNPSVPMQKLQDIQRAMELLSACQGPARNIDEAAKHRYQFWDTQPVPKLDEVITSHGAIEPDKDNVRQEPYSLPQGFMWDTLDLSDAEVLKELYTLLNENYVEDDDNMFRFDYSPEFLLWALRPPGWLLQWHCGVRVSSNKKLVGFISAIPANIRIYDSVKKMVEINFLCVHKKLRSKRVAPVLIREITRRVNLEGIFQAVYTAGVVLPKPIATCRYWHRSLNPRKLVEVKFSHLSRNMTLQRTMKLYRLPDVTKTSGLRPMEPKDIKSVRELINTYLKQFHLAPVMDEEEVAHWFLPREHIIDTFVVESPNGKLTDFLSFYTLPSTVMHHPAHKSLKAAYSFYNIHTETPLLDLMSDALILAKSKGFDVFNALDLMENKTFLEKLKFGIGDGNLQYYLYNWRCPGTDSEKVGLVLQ", "test": "Inhibition of human NMT2"}, "[19]": {"tested_on": "Plasmodium falciparum", "test": "Antiplasmodial activity against Plasmodium falciparum", "assay_type": "functional, organism-based"}, "[20]": {"target": "T2, Glycylpeptide N-tetradecanoyltransferase", "test": "Inhibition of recombinant his tagged Plasmodium falciparum NMT expressed in Escherichia coli"}, "[21]": {"tested_on": "Plasmodium falciparum", "test": "Antiplasmodial activity against Plasmodium falciparum 3D7 assessed as reduction in parasitemia growth", "assay_type": "functional, organism-based"}}}
{"smiles": "O=S(=O)(c1cc(Cl)ccc1Cl)N1CCC(O[C@H](c2ccc(Cl)cc2)c2ccccn2)CC1", "values": [{"measurement": "IC50", "setting": "[1]", "result": 2170, "unit": "nM"}, {"measurement": "IC50", "setting": "[2]", "result": 2380, "unit": "nM"}, {"measurement": "IC50", "setting": "[3]", "result": "> 200000", "unit": "nM"}, {"measurement": "selectivity ratio", "setting": "[4]", "result": "> 92.3"}]}
{"smiles": "Cc1cc(CN2C(=O)COc3cc(CCCOC4CCNCC4)ccc32)no1", "values": [{"measurement": "EC50", "setting": "[5]", "result": 7, "unit": "nM"}]}
{"smiles": "O=C(C[Se]C(=O)c1ccc(Cl)cc1)Nc1ccc(Cl)cc1", "values": [{"measurement": "IC50", "setting": "[6]", "result": 9120, "unit": "nM"}]}
{"smiles": "Cc1c(NS(=O)(=O)c2c(Cl)cc(-c3ccnc(N4CCNCC4)c3)cc2Cl)c(CC(C)C)nn1C", "note": "[ZELENIRSTAT]", "values": [{"measurement": "EC50", "setting": "[7]", "result": 1830, "unit": "nM"}, {"measurement": "Activity", "setting": "[8]", "result": 0.43, "unit": "%"}]}
{"smiles": "Cc1cc(CN2C(=O)COc3c(CCCCC4CCCN(C)CC4)cccc32)no1", "note": "(stereo not given)", "values": [{"measurement": "IC50", "setting": "[9]", "result": "< 2", "unit": "nM"}, {"measurement": "IC50", "setting": "[10]", "result": 100, "unit": "nM"}, {"measurement": "EC50", "setting": "[5]", "result": 7, "unit": "nM"}]}
{"smiles": "Cc1onc(-c2ccccc2)c1CNS(=O)(=O)c1cnn(-c2ccccc2)c1C", "values": [{"measurement": "IC50", "setting": "[11]", "result": 15700, "unit": "nM"}, {"measurement": "IC50", "setting": "[12]", "result": 45000, "unit": "nM"}]}
{"smiles": "Cc1nn(C)c(Cl)c1S(=O)(=O)Nc1ccc(Oc2ccc(F)cc2)cc1", "values": [{"measurement": "IC50", "setting": "[11]", "result": 45300, "unit": "nM"}, {"measurement": "IC50", "setting": "[12]", "result": 11800, "unit": "nM"}]}
{"smiles": "Cc1nn(C)c(C)c1N(C)S(=O)(=O)c1c(Cl)cc(CCCC2CCN(C)CC2)cc1Cl", "values": [{"measurement": "EC50", "setting": "[13]", "result": 7100, "unit": "nM"}]}
{"smiles": "Cc1nn(C)c(C)c1N(C(F)F)S(=O)(=O)c1c(Cl)cc(-c2ccc(CCCC3CCN(C)CC3)cc2)cc1Cl", "values": [{"measurement": "EC50", "setting": "[7]", "result": 60, "unit": "nM"}]}
{"smiles": "COc1ccc(NC(=O)C[Se]C(=O)c2ccccc2)cc1", "values": [{"measurement": "IC50", "setting": "[6]", "result": 8710, "unit": "nM"}]}
{"smiles": "Cc1nn(C)c(C)c1NS(=O)(=O)c1c(Cl)cc(-c2ccnc(N3CCN(C)CC3)c2)cc1Cl", "values": [{"measurement": "Ki", "setting": "[14]", "result": 6.3, "unit": "nM"}, {"measurement": "EC50", "setting": "[15]", "result": 150, "unit": "nM"}]}
{"smiles": "COc1cc(C2SCC(=O)N2Cc2ccccc2)ccc1O", "note": "(stereo not given)", "values": [{"measurement": "IC50", "setting": "[9]", "result": 22000, "unit": "nM"}]}
{"smiles": "CCc1ccc(NC(=O)C[Se]C(=O)c2ccc(Cl)cc2)cc1", "values": [{"measurement": "IC50", "setting": "[6]", "result": 7410, "unit": "nM"}]}
{"smiles": "Cc1ncc(CNC(=O)C2CN(c3nc(NCCN(C)C)ncc3Cl)C2)cn1", "values": [{"measurement": "IC50", "setting": "[16]", "result": 480, "unit": "nM"}, {"measurement": "IC50", "setting": "[17]", "result": 70000, "unit": "nM"}, {"measurement": "IC50", "setting": "[18]", "result": 76000, "unit": "nM"}]}
{"smiles": "O=C(C[Se]C(=O)c1ccccc1)Nc1ccc(Cl)cc1", "values": [{"measurement": "IC50", "setting": "[6]", "result": 7080, "unit": "nM"}]}
{"smiles": "Cc1cc(CN2C(=O)COc3cc(CCCCC4CCN(C)CC4)ccc32)no1", "values": [{"measurement": "EC50", "setting": "[5]", "result": 7, "unit": "nM"}]}
{"smiles": "Cc1nn(C)c(C)c1N(C(F)F)S(=O)(=O)c1c(Cl)cc(-c2ccc(CCCCC3CCN(C)CC3)cc2)cc1Cl", "values": [{"measurement": "EC50", "setting": "[7]", "result": 20, "unit": "nM"}]}
{"smiles": "Cc1cc(CN2C(=O)COc3c(CCCCC4CCNCC4)cccc32)no1", "values": [{"measurement": "EC50", "setting": "[5]", "result": 7, "unit": "nM"}]}
{"smiles": "Cc1ccc(S(=O)(=O)NC(C)C(=O)NC(C)C(=O)NC23CC4CC(CC(C4)C2)C3)cc1", "note": "(stereo not given)", "values": [{"measurement": "IC50", "setting": "[19]", "result": 3600, "unit": "nM"}]}
{"smiles": "Cc1cc(Nc2ccc([N+](=O)[O-])cc2O)nc2ccccc12", "values": [{"measurement": "IC50", "setting": "[20]", "result": 1400, "unit": "nM"}, {"measurement": "EC50", "setting": "[21]", "result": 400, "unit": "nM"}]}
{"smiles": "Cc1cc(CN2C(=O)COc3c(CCCCC4CCN(C)CC4)cccc32)no1", "values": [{"measurement": "EC50", "setting": "[5]", "result": 7, "unit": "nM"}]}
{"smiles": "COc1cc(C2SCC(=O)N2Cc2ccccn2)ccc1O", "note": "(stereo not given)", "values": [{"measurement": "IC50", "setting": "[9]", "result": 270, "unit": "nM"}, {"measurement": "EC50", "setting": "[5]", "result": 14000, "unit": "nM"}]}
